# From US11560596B2, “Method for expecting and diagnosing UQCRB-related disease” (Industry-Academic Cooperation Foundation, Yonsei University, priority 2015, dated 2023)
# Test system: UQCRB mutant cell strains MT1 and MT2
# Assay: MTT colorimetric assay of cell growth after treatment with cholesterol synthesis inhibitors
# Type: cell-based
# Settings: FIGS. 11 to 13
# Text: FIG. 11 represents MTT colorimetric assay showing the cell growth of HEK293, MT1, and MT2 cells treated with a cholesterol inhibitor.
# FIG. 12 represents MTT colorimetric assay showing the cell growth of HEK293, MT1, and MT2 cells treated with a cholesterol inhibitor.
# FIG. 13 represents MTT colorimetric assay showing the cell growth of HEK293, MT1, and MT2 cells treated with a cholesterol inhibitor.
# For the purpose of verifying validity for selection of cholesterol metabolic process as a pathway in which UQCRB was participated, a cholesterol synthesis inhibitor was processed in UQCRB mutant cell strains to measure an effect that the cholesterol synthesis inhibitor affects growth of the UQCRB mutant cell strains, and the result thereof was shown in FIGS. 11 to 13.
row,SMILES,growth of the UQCRB mutant cell strains MT1 and MT2
1,CC[C@H](C)C(=O)O[C@H]1CCC=C2C=C[C@H](C)[C@H](CC[C@@H]3C[C@@H](O)CC(=O)O3)[C@H]21 [Mevastatin],inhibited
2,F/C(COc1ccc2c(c1)[nH]c1ccccc12)=C1/CN2CCC1CC2 [YM-53601],inhibited
